Biological target: T1, Nav 1.7 (Homo sapiens, UniProt Q15858)
T1 construct: expressed in transfected cells
Assay: Whole-cell voltage clamp electrophysiology, automated patch clamp (marker c in Table of Examples)
Type: cell-based
Settings: marker c = Automated patch clamp data; read-out: Nav 1.7 activity
Method in brief: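 Human NaV1.7 currents were recorded by whole-cell automated patch clamp, on IonWorks Quattro or another automated platform, typically in perforated-patch configuration. The stimulus protocol was designed to probe block mainly of the inactivated state, with a typical sweep stepping from about −65 mV holding to −10 mV, then −100 mV.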

T1 sequence (Q15858 whole entry): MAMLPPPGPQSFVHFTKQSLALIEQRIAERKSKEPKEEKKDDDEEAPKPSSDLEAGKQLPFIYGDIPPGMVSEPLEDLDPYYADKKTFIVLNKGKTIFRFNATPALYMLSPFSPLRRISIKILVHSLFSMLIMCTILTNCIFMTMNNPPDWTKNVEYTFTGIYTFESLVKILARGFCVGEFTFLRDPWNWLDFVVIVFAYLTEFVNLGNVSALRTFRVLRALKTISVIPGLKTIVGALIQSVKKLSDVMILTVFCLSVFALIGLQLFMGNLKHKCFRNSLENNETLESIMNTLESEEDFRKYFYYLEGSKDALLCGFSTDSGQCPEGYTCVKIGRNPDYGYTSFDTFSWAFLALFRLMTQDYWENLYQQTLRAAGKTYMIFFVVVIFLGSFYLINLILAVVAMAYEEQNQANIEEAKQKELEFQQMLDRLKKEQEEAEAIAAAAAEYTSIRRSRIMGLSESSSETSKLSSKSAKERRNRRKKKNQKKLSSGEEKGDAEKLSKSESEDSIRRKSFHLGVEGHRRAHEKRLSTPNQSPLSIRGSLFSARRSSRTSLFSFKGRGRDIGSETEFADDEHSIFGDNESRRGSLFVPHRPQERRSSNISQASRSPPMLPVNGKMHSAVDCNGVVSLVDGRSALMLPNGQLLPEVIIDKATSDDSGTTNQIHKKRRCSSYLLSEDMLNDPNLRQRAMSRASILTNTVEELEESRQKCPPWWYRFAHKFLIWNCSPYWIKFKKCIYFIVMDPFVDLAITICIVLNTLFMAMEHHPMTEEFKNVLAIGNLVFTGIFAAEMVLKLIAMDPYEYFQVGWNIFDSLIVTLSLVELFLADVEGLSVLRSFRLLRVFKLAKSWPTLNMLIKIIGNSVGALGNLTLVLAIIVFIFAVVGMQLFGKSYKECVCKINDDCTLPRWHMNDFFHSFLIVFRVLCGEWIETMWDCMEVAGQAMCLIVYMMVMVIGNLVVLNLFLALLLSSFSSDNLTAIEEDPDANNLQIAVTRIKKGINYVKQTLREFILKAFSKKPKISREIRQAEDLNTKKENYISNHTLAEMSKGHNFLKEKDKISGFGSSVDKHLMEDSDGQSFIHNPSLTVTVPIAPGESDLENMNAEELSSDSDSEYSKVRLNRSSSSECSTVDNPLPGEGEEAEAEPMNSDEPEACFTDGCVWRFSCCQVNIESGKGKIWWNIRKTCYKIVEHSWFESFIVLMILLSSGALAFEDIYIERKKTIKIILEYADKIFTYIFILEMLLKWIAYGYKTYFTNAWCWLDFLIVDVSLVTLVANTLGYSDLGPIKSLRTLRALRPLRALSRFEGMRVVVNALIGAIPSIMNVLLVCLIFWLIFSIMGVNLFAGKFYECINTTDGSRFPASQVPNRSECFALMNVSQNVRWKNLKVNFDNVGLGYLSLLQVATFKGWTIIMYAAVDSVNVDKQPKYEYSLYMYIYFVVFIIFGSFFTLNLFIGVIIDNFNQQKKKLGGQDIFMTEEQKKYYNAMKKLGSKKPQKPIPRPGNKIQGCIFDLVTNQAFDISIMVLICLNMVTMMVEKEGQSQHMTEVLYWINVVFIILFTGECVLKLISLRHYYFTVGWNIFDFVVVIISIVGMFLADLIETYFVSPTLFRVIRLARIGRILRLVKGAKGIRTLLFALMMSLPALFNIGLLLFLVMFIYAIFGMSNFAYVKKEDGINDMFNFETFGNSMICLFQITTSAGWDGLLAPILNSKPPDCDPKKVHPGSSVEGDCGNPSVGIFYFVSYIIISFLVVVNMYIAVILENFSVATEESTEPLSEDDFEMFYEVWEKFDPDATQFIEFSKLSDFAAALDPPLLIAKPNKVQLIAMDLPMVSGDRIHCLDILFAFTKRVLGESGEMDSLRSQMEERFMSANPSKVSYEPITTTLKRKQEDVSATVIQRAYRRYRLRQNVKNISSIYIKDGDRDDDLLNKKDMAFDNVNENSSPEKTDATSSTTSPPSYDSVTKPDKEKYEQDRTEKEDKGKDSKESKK

| IC50 [nM] | SMILES |
| --- | --- |
| 2400 | COCCOc1cccnc1-c1nc(-c2nc(N)nc(N(C)c3ccccc3)n2)no1 [Example 483, 6-{5-[3-(2-methoxyethoxy)pyridin-2-yl]-1,2,4-oxadiazol-3-yl}-2-N-methyl-2-N-phenyl-1,3,5-triazine-2,4-diamine] |
| 620 | CN(c1ccccc1)c1nc(N)nc(-c2noc(N3C[C@@H]4[C@@H](COC5CCCC5)[C@@H]4C3)n2)n1 [Example 399, 6-{5-[6-[(cyclopentyloxy)methyl]-3-azabicyclo[3.1.0]hexan-3-yl]-1,2,4-oxadiazol-3-yl}-2-N-methyl-2-N-phenyl-1,3,5-triazine-2,4-diamine] |
| 233 | Nc1nc(Nc2ccccc2)nc(-c2noc(N3CCC(COCC4CC4)CC3)n2)n1 [Example 214, 6-(5-{4-[(cyclopropylmethoxy)methyl]piperidin-1-yl}-1,2,4-oxadiazol-3-yl)-2-N-phenyl-1,3,5-triazine-2,4-diamine] |
| 386 | CN(c1ccccc1)c1nc(N)nc(-c2noc(-c3ncccc3C(=O)OC3CCCC3)n2)n1 [Example 379, cyclopentyl 2-(3-{4-amino-6-[methyl(phenyl)amino]-1,3,5-triazin-2-yl}-1,2,4-oxadiazol-5-yl)pyridine-3-carboxylate] |
| 171 | COCCN(c1ccccc1)c1nc(N)nc(-c2noc(N3CC(Oc4ccccc4)C3)n2)n1 [Example 436, 2-N-(2-Methoxyethyl)-6-[5-(3-phenoxyazetidin-1-yl)-1,2,4-oxadiazol-3-yl]-2-N-phenyl-1,3,5-triazine-2,4-diamine] |
| 6450 | CN(c1ccccc1)c1nc(N)nc(-c2noc(N3Cc4cncnc4C3)n2)n1 [Example 323, 2-N-Methyl-2-N-phenyl-6-(5-{5H,6H,7H-pyrrolo[3,4-d]pyrimidin-6-yl}-1,2,4-oxadiazol-3-yl)-1,3,5-triazine-2,4-diamine] |
| 833 | Nc1nc(Nc2ccccc2)nc(-c2noc(C(=O)N3CCCC3)n2)n1 [Example 220, 2-N-phenyl-6-{5-[(pyrrolidin-1 - yl)carbonyl]-1,2,4-oxadiazol-3-yl}-1,3,5-triazine-2,4-diamine] |
| 5950 | CN(c1ccccc1)c1nc(N)nc(-c2noc(C3CCC(NC(=O)C(F)(F)F)CC3)n2)n1 (stereo not drawn) [Example 428, N-[4-(3-{4-amino-6-[methyl(phenyl)amino]-1,3,5-triazin-2-yl}-1,2,4-oxadiazol-5-yl)cyclohexyl]-2,2,2-trifluoroacetamide] |
| 8730 | COc1ccccc1Cc1nc(-c2nc(N)nc(N(C)c3ccccc3)n2)no1 [Example 199, 6-{5-[(2-methoxyphenyl)methyl]-1,2,4-oxadiazol-3-yl}-2-N-methyl-2-N-phenyl-1,3,5-triazine-2,4-diamine] |
| 5760 | CN1CCN(C(=O)c2nc(-c3nc(N)nc(N(C)c4ccccc4)n3)no2)CC1 [Example 344, 2-N-methyl-6-{5-[(4-methylpiperazin-1-yl)carbonyl]-1,2,4-oxadiazol-3-yl}-2-N-phenyl-1,3,5-triazine-2,4-diamine] |
| 684 | CN(c1ccccc1)c1nc(N)nc(-c2noc(C3CCC(NC(=O)OC(C)(C)C)CC3)n2)n1 (stereo not drawn) [Example 423, tert-butyl N-[4-(3-{4-amino-6-[methyl(phenyl)amino]-1,3,5-triazin-2-yl}-1,2,4-oxadiazol-5-yl)cyclohexyl]carbamate] |
| 1090 | CC(C)CS(=O)(=O)N1CCC[C@@H]1c1nc(-c2nc(N)nc(N(C)c3ccccc3)n2)no1 [Example 447, 2-N-methyl-6-{5-[(2R)-1-[(2-methylpropane)sulfonyl]pyrrolidin-2-yl]-1,2,4-oxadiazol-3-yl}-2-N-phenyl-1,3,5-triazine-2,4-diamine] |
| 338 | CN(c1ccccc1)c1nc(N)nc(-c2noc(-c3cccnc3COCC(F)(F)F)n2)n1 [Example 301, 2-N-methyl-2-N-phenyl-6-(5-{2-[(2,2,2-trifluoroethoxy)methyl]pyridin-3-yl}-1,2,4-oxadiazol-3-yl)-1,3,5-triazine-2,4-diamine] |
| 170 | CN(c1ccccc1)c1nc(N)nc(-c2noc(-c3ccc(CCC(F)(F)F)nc3)n2)n1 [Example 315, 2-N-methyl-2-N-phenyl-6-{5-[6-(3,3,3-trifluoropropyl)pyridin-3-yl]-1,2,4-oxadiazol-3-yl}-1,3,5-triazine-2,4-diamine] |
| 287 | CN(c1ccccc1)c1nc(N)nc(-c2noc([C@H]3CCCN3S(=O)(=O)CC(F)(F)F)n2)n1 [Example 448, 2-N-methyl-2-N-phenyl-6-{5-[(2R)-1-[(2,2,2-trifluoroethane)sulfonyl]pyrrolidin-2-yl]-1,2,4-oxadiazol-3-yl}-1,3,5-triazine-2,4-diamine] |
| 1790 | CN(c1ccccc1)c1nc(N)nc(-c2noc(C3CCN(S(=O)(=O)CC(F)(F)F)C3)n2)n1 (stereo not drawn) [Example 202, 2-N-methyl-2-N-phenyl-6-(5-{1-[(2,2,2-trifluoroethane)sulfonyl]pyrrolidin-3-yl}-1,2,4-oxadiazol-3-yl)-1,3,5-triazine-2,4-diamine] |
| 3490 | CN(c1ccccc1)c1nc(N)nc(-c2noc(-c3cccnc3Cl)n2)n1 [Example 275, 6-[5-(2-chloropyridin-3-yl)-1,2,4-oxadiazol-3-yl]-2-N-methyl-2-N-phenyl-1,3,5-triazine-2,4-diamine] |
| 1320 | CN(c1ccccc1)c1nc(N)nc(-c2noc(-c3ncccc3C(=O)NCC3CC3)n2)n1 [Example 369, 2-(3-{4-amino-6-[methyl(phenyl)amino]-1,3,5-triazin-2-yl}-1,2,4-oxadiazol-5-yl)-N-(cyclopropylmethyl)pyridine-3-carboxamide] |
| 478 | CN(c1cccc(Cl)c1)c1nc(N)nc(-c2noc(-c3ncccc3F)n2)n1 [Example 272, 2-N-(3-chlorophenyl)-6-[5-(3-fluoropyridin-2-yl)-1,2,4-oxadiazol-3-yl]-2-N-methyl-1,3,5-triazine-2,4-diamine] |
| 894 | COCCOc1ccc(-c2nc(-c3nc(N)nc(N(C)c4ccccc4)n3)no2)cn1 [Example 329, 6-{5-[6-(2-methoxyethoxy)pyridin-3-yl]-1,2,4-oxadiazol-3-yl}-2-N-methyl-2-N-phenyl-1,3,5-triazine-2,4-diamine] |
| 8580 | CN(c1ccccc1)c1nc(N)nc(-c2noc(N3CCC(NC(=O)C(F)(F)F)CC3)n2)n1 [Example 274, N-[1-(3-{4-amino-6-[methyl(phenyl)amino]-1,3,5-triazin-2-yl}-1,2,4-oxadiazol-5-yl)piperidin-4-yl]-2,2,2-trifluoroacetamide] |
| 2810 | CN(c1ccccc1)c1nc(N)nc(-c2noc(N3CCN(S(=O)(=O)N(C)C)CC3)n2)n1 [Example 388, 4-(3-{4-amino-6-[methyl(phenyl)amino]-1,3,5-triazin-2-yl}-1,2,4-oxadiazol-5-yl)-N,N-dimethylpiperazine-1-sulfonamide] |
| 624 | CN(c1ccccc1)c1nc(N)nc(-c2noc(C(=O)N3C[C@@H]4[C@@H](COc5ccccc5)[C@@H]4C3)n2)n1 [Example 406, 2-N-methyl-6-(5-{[-6-(phenoxymethyl)-3-azabicyclo[3.1.0]hexan-3-yl]carbonyl}-1,2,4-oxadiazol-3-yl)-2-N-phenyl-1,3,5-triazine-2,4-diamine] |
| 1520 | Nc1nc(Nc2cccc(F)c2)nc(-c2noc(C(=O)NC3CCC3)n2)n1 [Example 224, 3-{4-amino-6-[(3-fluorophenyl)amino]-1,3,5-triazin-2-yl}-N-cyclobutyl-1,2,4-oxadiazole-5-carboxamide] |
| 2450 | CC(C)C(=O)NC1CCC(c2nc(-c3nc(N)nc(N(C)c4ccccc4)n3)no2)CC1 (stereo not drawn) [Example 425, N-[4-(3-{4-Amino-6-[methyl(phenyl)amino]-1,3,5-triazin-2-yl}-1,2,4-oxadiazol-5-yl)cyclohexyl]-2-methylpropanamide] |

| SMILES | IC50 [nM] |
| --- | --- |
| Nc1nc(Nc2ccccc2)nc(-c2noc(N3CCC(COC4CCC4)CC3)n2)n1 [Example 215, 6-{5-[4-(cyclobutoxymethyl)piperidin-1-yl]-1,2,4-oxadiazol-3-yl}-2-N-phenyl-1,3,5-triazine-2,4-diamine] | 280 |

Same assay, conditions: marker c: Automated patch clamp data; read-out: Nav 1.7 activity

| IC50 [nM] | SMILES |
| --- | --- |
| 428 | CN(c1ccccc1)c1nc(N)nc(-c2noc(-c3ccccc3F)n2)n1 [Example 124, 6-[5-(2-Fluoro-phenyl)-[1,2,4]oxadiazol-3-yl]-N-methyl-N-phenyl-[1,3,5]triazine-2,4-diamine] |
| 691 | COc1cccc(-c2nc(-c3nc(N)nc(N(C)c4cccc(Cl)c4)n3)no2)c1 [Example 83, N-(3-Chloro-phenyl)-6-[5-(3-methoxy-phenyl)-[1,2,4]oxadiazol-3-yl]-N-methyl-[1,3,5]triazine-2,4-diamine] |
| 142 | CC(C)Oc1ccc(-c2nc(-c3nc(N)nc(N(C)c4ccccc4)n3)no2)cn1 [Example 149, 2-N-methyl-2-N-phenyl-6-{5-[6-(propan-2-yloxy)pyridin-3-yl]-1,2,4-oxadiazol-3-yl}-1,3,5-triazine-2,4-diamine] |
| 477 | COCCNc1nc(Nc2ccccc2)nc(-c2noc(-c3ccc(OCC(F)(F)F)nc3)n2)n1 [Example 157, 2-N-(2-methoxyethyl)-4-N-phenyl-6-{5-[6-(2,2,2-trifluoroethoxy)pyridin-3-yl]-1,2,4-oxadiazol-3-yl}-1,3,5-triazine-2,4-diamine] |
| 458 | COc1cc(F)ccc1-c1nc(-c2nc(N)nc(N(C)c3cccc(C)c3)n2)no1 [Example 187, 6-[5-(4-fluoro-2-methoxyphenyl)-1,2,4-oxadiazol-3-yl]-2-N-methyl-2-N-(3-methylphenyl)-1,3,5-triazine-2,4-diamine] |
| 3520 | CN(c1ccccc1)c1nc(N)nc(-c2noc(N3CCOCC3)n2)n1 [Example 45, N-Methyl-6-(5-morpholin-4-yl-[1,2,4]oxadiazol-3-yl)-N-phenyl-[1,3,5]triazine-2,4-diamine] |
| 1410 | CN(c1ccccc1)c1nc(N)nc(-c2noc(-c3ncccc3OCC(F)(F)F)n2)n1 [Example 42, N-Methyl-N-phenyl-6-{5-[3-(2,2,2-trifluoro-ethoxy)-pyridin-2-yl]-[1,2,4]oxadiazol-3-yl}-[1,3,5]triazine-2,4-diamine] |

From patent US8895733B2 (Novartis AG, priority 2010, dated 2014)
